Entries after “also recorded” stand apart in the source; their conditions may differ.
Experiments:
HL-60 = assay: MTT inhibition of cell proliferation; format: cell-based; conditions: Homo sapiens, 48 h
Description: (§1) In order to determine the mode of action of cell death in cancer cells, first we explored the cytotoxic potential of different structural analogs of benzothiazoles on different human cancer cell lines. […] These compounds have limited or no cytotoxicity to cervical cancer SiHa, HeLa cells, breast cancer MCF-7 cells and colon cancer HCT-15 cells.

HCT-15 = assay: MTT inhibition of cell proliferation; format: cell-based; conditions: Homo sapiens, 48 h
Description: as §1

Hela = assay: MTT inhibition of cell proliferation; format: cell-based; conditions: Homo sapiens, 48 h
Description: as §1

MCF-7 = assay: MTT inhibition of cell proliferation; format: cell-based; conditions: Homo sapiens, MCF7, 48 h
Description: as §1

SiHa = assay: MTT inhibition of cell proliferation; format: cell-based; conditions: Homo sapiens, 48 h
Description: as §1

[1] = tested on: Ehrlich Ascites Carcinoma (EAC); assay: In vivo anticancer activity, Ehrlich ascites carcinoma; design: species or system Swiss mice; conditions: for No. of deaths / toxicity to animals: EAC mice
Procedure: Model: Ehrlich Ascites Carcinoma (EAC)
Ehrlich ascites carcinoma (EAC) cells were collected from the peritoneal cavity of the swiss mice harbouring 8-10 days old ascitic tumor. 1×10^7 EAC cells were injected intraperitoneally in Swiss mice selected for the experiment on day 0. The next day, animals were randomized and divided into different groups. The treatment groups contained 7 animals each and control group contained 10 animals. Treatment groups were treated with different doses of test substances intraperitoneally from day 1-9. One of the treatment group received 5-fluorouracil (20 mg/kg, i.p) and it served as positive control. The tumor bearing control group was similarly administered normal saline (0.2 ml, i.p.). On day 12, animals were sacrificed and ascitic fluid was collected from peritoneal cavity of each mouse for the evaluation of tumor growth. Percent tumor growth inhibition was calculated based on the total number of tumor cells present in the peritoneal cavity as on day 12 of the experiment using the following formula.

HL-60 cells = assay: Annexin V-FITC flow cytometric analysis of apoptosis and necrosis; format: cell-based, human; conditions: 1 μM, 24 h
Procedure: During apoptosis an important biochemical change that take place in cells undergoing is flipping of phosphatidyl serine lipid from the inner leaflet of the cellular membrane to the outer one.
Annexin V a calcium dependent phospholipids binding protein has a high affinity for PS. […] Compounds 4-8 at 1 μM were treated with HL-60 cells were incubated for 24 h and the extent of apoptosis vs. necrosis was analyzed from the quadrant analysis of cell population with Annexin V-FITC. Both the apoptotic and post apoptotic cell populations increased in HL-60 cells.

topoisomerase II = assay: DNA topoisomerase-II inhibition assay; format: biochemical; conditions: 1 μM; etoposide 100 μM
Description: DNA topoisomerases are nuclear enzymes capable of resolving the topology of DNA to allow its replication. So, proper relaxing is very important for successful replication cycle and thus for the cell survival. However, topoisomerases also serve as targets in the anticancer chemotherapy in which cell death serves an important purpose. Moreover, the topoisomerase targeting drugs can either be classified either topo posions, which act by stabilizing enzyme DNA cleavable complexes leading to DNA break or topo catalytic inhibitors, which act by stabilizing enzyme where both DNA strands remain intact and no DNA breaks occur. Importantly, all the topoisomerase inhibitors finally induce apoptosis. In the present study, all the five compounds 4-8 were first subjected to topoisomerase II inhibition assay.

Compound: O=C(Nc1nc2ccc([N+](=O)[O-])cc2s1)c1cccnc1Nc1cc(F)c(F)c(F)c1 [Compound 8, N3-(6-nitro-1,3-benzothiazol-2-yl)-2-[(3,4,5-trifluorophenyl)amino]-3-pyridine carboxamide]
- IC50 (HL-60): 0.08 µM
- IC50 (HCT-15): > 100 µM
- IC50 (Hela): > 100 µM
- IC50 (MCF-7): > 100 µM
- IC50 (SiHa): 36 µM
- Growth Inhibition (%) ([1]; 0.1 mg/kg i.p. day 1-9, read day 12): 10.98%
- No. of deaths / toxicity to animals ([1]; 0.1 mg/kg i.p.): 0/7
- Growth Inhibition (%) ([1]; 0.3 mg/kg i.p. day 1-9, read day 12): 53.15%
- No. of deaths / toxicity to animals ([1]; 0.3 mg/kg i.p.): 0/7
- Growth Inhibition (%) ([1]; 0.4 mg/kg i.p. day 1-9, read day 12): Intolerable
- No. of deaths / toxicity to animals ([1]; 0.4 mg/kg i.p.): deaths of all the seven animals
- No. of deaths / toxicity to animals ([1]; 0.4 mg/kg i.p., listed as Comp 8): 7/7
- Growth Inhibition (%) ([1]; 0.5 mg/kg i.p. day 1-9, read day 12): Intolerable
- No. of deaths / toxicity to animals ([1]; 0.5 mg/kg i.p.): 7/7
- Growth Inhibition (%) ([1]; 2 mg/Kg i.p. day 1-9, read day 12): Intolerable
- No. of deaths / toxicity to animals ([1]; 2 mg/Kg i.p.): 7/7
- Growth Inhibition (%) ([1]; 5 mg/Kg i.p. day 1-9, read day 12): Intolerable
- No. of deaths / toxicity to animals ([1]; 5 mg/Kg i.p.): 7/7
- Growth Inhibition (%) ([1]; 20 mg/Kg i.p. day 1-9, read day 12): Intolerable
- No. of deaths / toxicity to animals ([1]; 20 mg/Kg i.p.): 7/7
- apoptotic cells (Annexin V-FITC) (HL-60 cells): around 70%
- topoisomerase-II inhibition (DNA relaxation) (topoisomerase II): more potent effect relative to etoposide; also recorded: maximum inhibition
